Experimental data taken from patent publication US20030232079A1, “DPC 333 formulation having unique biopharmaceutical characteristics” (priority 2002, published 2003).
Read-outs that look alike come from different tables or passages of the source.

Assays:
Format in all cases: in vivo, human
[1] = Safety and tolerability of single oral doses of DPC 333 (AEs, clinical laboratory tests, ECGs, vital signs)
Procedure: (§1) The safety, tolerability, and pharmacokinetics of an oral dose form of DPC 333 were evaluated in a double-blind, placebo controlled, ascending single dose study in healthy male and female human subjects. Subjects in each cohort were randomized to receive either a single dose of DPC 333 (n=6) or placebo (n=2). Doses examined were 15, 25, 40, 80, 120, 225, 345, and 530 mg. Safety measurements included monitoring of AEs, standard clinical laboratory tests, ECGs, and vital sign measurements.

[2] = Double-blind, placebo controlled, ascending single dose pharmacokinetic study of oral DPC 333 in healthy subjects; conditions: for half-life / Cmax / Tmax / AUC / AUC(0-inf) / concentration at 12 h: both sexes, human, plasma; for AUC: read-out: mean AUC from time zero to time infinity, range; for concentration at 12 h: read-out: C12 (plasma concentration at 12 hours) Mean
Procedure: as §1
(§2) Blood samples were obtained pre-dose (0 hour) and 0.25, 0.5, 1, 1.5, 2, 2.5, 3, 4, 6, 8, 12, 18, 24, 36 and 48 hours post-dose administration. DPC 333 was quantified plasma extracts from these blood samples by a solid phase method followed by turbo ion spray liquid chromatography employing tandem mass spectroscopic detection (LC/MS/MS). The validated assay range for DPC 333 using 0.2 mL of plasma was 1.05 to 2098 nM. The assay was specific for DPC 333.
(§3) The following pharmacokinetic parameters for DPC 333 were assessed following a single dose administration of the DPC 333 oral dosage form to a subject: Cmax, Tmax, AUC, T1/2, Clo, and C12. Cmax is defined as the observed maximum plasma concentration. Tmax is defined as the time of observed maximum plasma concentration. AUC is defined as the area under the plasma concentration-time curve from time zero to time infinity; T1/2 is defined as the terminal disposition half-life.

[3] = Comparison of DPC 333 pharmacokinetics by gender in fasted subjects; conditions: for half-life / AUC(0-inf) / Cmax / Tmax: human, plasma, oral, 225 mg; for half-life: harmonic mean ± pseudo-standard deviation; for AUC(0-inf) / Cmax: mean ± SD; for Tmax: read-out: Tmax (median)
Procedure: as §2, §3
Differences in pharmacokinetics of DPC 333 based upon gender were also examined. The following table provides a comparison of DPC 333 pharmacokinetics by gender in fasted subjects receiving a single dose of 225 mg of DPC 333.

[4] = Double-blind, placebo controlled, ascending single dose pharmacokinetic study of oral DPC 333 in healthy subjects; conditions: single oral dose 80 mg, healthy volunteers, n = 12
[5] = Effect of food on pharmacokinetics of oral DPC 333, two period crossover study (fasted vs high-fat breakfast); conditions: for AUC(0-inf) / AUC(0-t) / Cmax: male, po, n = 6, mean ± SD
Procedure: as §2, §3
The effect of food on the safety, tolerability and pharmacokinetics of this oral dose form of DPC 333 was also examined in a randomized, open label, two period balanced crossover study in one cohort of male subjects. Each subject received a single oral 225 mg dose of DPC 333 on two occasions administered at least one week apart. On one occasion the dose was given in the fasted state and on the other occasion the dose was administered after a standard, high-fat breakfast meal. The following table provides pharmacokinetic data from this study.

[6] = single oral dose 15 mg, healthy volunteers, n = 6
[7] = single oral dose 25 mg, healthy volunteers, n = 6
[8] = single oral dose 40 mg, healthy volunteers, n = 6
[9] = single oral dose 80 mg, healthy volunteers, n = 12
[10] = single oral dose 120 mg, healthy volunteers, n = 6
[11] = single oral dose 225 mg, healthy volunteers, n = 6
[12] = single oral dose 345 mg, healthy volunteers, n = 6
[13] = single oral dose 530 mg, healthy volunteers, n = 6
[14] = female, Females (n = 6), Part 1: 225 mg (fasted)
[15] = male, Males (n = 6), Part 1: 225 mg (fasted)
[16] = male, Males (n = 6), Part 2: 225 mg (fasted)
[17] = administered with food compared to fasted state, 225 mg
[18] = fed/fasted, fasted treatment as the reference, 225 mg
[19] = human, plasma, 225 mg, Fasted, 225 mg single oral dose, male subjects
[20] = human, plasma, 225 mg, Fed (high-fat breakfast), 225 mg single oral dose, male subjects

Cc1cc(COc2ccc([C@]3(N)CCN([C@H](CC(C)C)C(=O)NO)C3=O)cc2)c2ccccc2n1 [DPC 333, [1-(R)]-3-amino-N-hydroxy-alpha-(2-methylpropyl)-3-[4-[(2-methyl-4-quinolinyl)methoxy]phenyl]-2-oxo-1-pyrrolidineacetamide]
dose-related trends in safety parameters ([1]; all safety parameters measured, doses 15 to 530 mg): no dose-related mean trends observed
discontinuations because of an AE / serious AEs ([1]; doses 15 to 530 mg): no discontinuations because of an AE nor any serious AEs reported
criteria for an intolerable dose ([1]; doses evaluated, 15 to 530 mg): criteria for an intolerable dose were not achieved
tolerability ([1]; oral dose form, healthy volunteers): well tolerates
increase in mean AUC (time zero to time infinity) with dose ([2]; at a single dose greater than 225 mg): greater than proportional increase
increase in exposure (AUC) with dose ([2]; at the 345 mg and 530 mg doses): greater-than-proportional increase
half-life ([2]; oral, for the higher doses, read-out: mean half-life estimates (converted)): ~6 h
half-life ([2]; oral, single dose administrations ranging from 15 mg to 530 mg, read-out: mean terminal disposition half-life (T1/2)): 2 to 7 h
Cmax ([2]; oral, single dose of 15 mg, read-out: mean maximum plasma concentration (Cmax), range): 0.088 to 0.18 µM
Tmax ([2]; oral, single dose of 15 mg, read-out: mean time of maximum plasma concentration (Tmax), range): 0.5 to 1 h
AUC ([2]; oral, single dose of 25 mg): 0.45 to 0.9 µM·h
Cmax ([2]; oral, single dose of 25 mg, read-out: mean maximum plasma concentration (Cmax), range): 0.17 to 0.435 µM
Tmax ([2]; oral, single dose of 25 mg, read-out: mean time of maximum plasma concentration (Tmax), range): 0.5 to 1 h
AUC ([2]; oral, single dose of 40 mg): 0.93 to 1.43 µM·h
Tmax ([2]; oral, single dose of 40 mg, read-out: mean time of maximum plasma concentration (Tmax), range): 0.25 to 1 h
Cmax ([2]; oral, single dose of 40 mg, upper limit in μM, read-out: mean maximum plasma concentration (Cmax), range): 0.355 to 0.655 µM
AUC ([2]; oral, single dose of 80 mg): 2.25 to 4.16 µM·h
Tmax ([2]; oral, single dose of 80 mg, read-out: mean time of maximum plasma concentration (Tmax), range): 0.5 to 1 h
Cmax ([2]; oral, single dose of 80 mg, upper limit in μM, read-out: mean maximum plasma concentration (Cmax), range): 0.965 to 1.87 µM
AUC ([2]; oral, single dose of 120 mg): 3.33 to 6.21 µM·h
Cmax ([2]; oral, single dose of 120 mg, read-out: mean maximum plasma concentration (Cmax), range): 1.54 to 2.35 µM
Tmax ([2]; oral, single dose of 120 mg, read-out: mean time of maximum plasma concentration (Tmax), range): 0.5 to 1 h
AUC ([2]; oral, single dose of 225 mg): 6.38 to 9.4 µM·h
Tmax ([2]; oral, single dose of 225 mg, read-out: mean time of maximum plasma concentration (Tmax), range): 0.5 to 1 h
Cmax ([2]; oral, single dose of 225 mg, upper limit in μM, read-out: mean maximum plasma concentration (Cmax), range): 2.62 to 3.65 µM
AUC ([2]; oral, single dose of 345 mg): 18.4 to 28.8 µM·h
Cmax ([2]; oral, single dose of 345 mg, read-out: mean maximum plasma concentration (Cmax), range): 6.58 to 15.4 µM
Tmax ([2]; oral, single dose of 345 mg, read-out: mean time of maximum plasma concentration (Tmax), range): 0.25 to 1 h
AUC ([2]; oral, single dose of 530 mg): 22 to 39.5 µM·h
Cmax ([2]; oral, single dose of 530 mg, read-out: mean maximum plasma concentration (Cmax), range): 9.45 to 18.1 µM
Tmax ([2]; oral, single dose of 530 mg, read-out: mean time of maximum plasma concentration (Tmax), range): 0.5 to 1 h
half-life ([2]; po, 15 mg, single oral dose 15 mg, healthy volunteers, n = 6, read-out: T½ Mean (harmonic mean) (converted)): 2.18 h
half-life ([2]; po, 25 mg, single oral dose 25 mg, healthy volunteers, n = 6, read-out: T½ Mean (harmonic mean) (converted)): 2.86 h
half-life ([2]; po, 40 mg, single oral dose 40 mg, healthy volunteers, n = 6, read-out: T½ Mean (harmonic mean) (converted)): 3.41 h
half-life ([2]; po, 80 mg, single oral dose 80 mg, healthy volunteers, n = 12, read-out: T½ Mean (harmonic mean) (converted)): 4.05 h
half-life ([2]; po, 120 mg, single oral dose 120 mg, healthy volunteers, n = 6, read-out: T½ Mean (harmonic mean) (converted)): 4.89 h
half-life ([2]; po, 225 mg, single oral dose 225 mg, healthy volunteers, n = 6, read-out: T½ Mean (harmonic mean) (converted)): 5.53 h
half-life ([2]; po, 345 mg, single oral dose 345 mg, healthy volunteers, n = 6, read-out: T½ Mean (harmonic mean) (converted)): 6.39 h
half-life ([2]; po, 530 mg, single oral dose 530 mg, healthy volunteers, n = 6, read-out: T½ Mean (harmonic mean) (converted)): 6.04 h
Tmax ([2]; oral administration, post dose, doses 15 to 530 mg, read-out: Tmax values): < 1 h
AUC(0-inf) [2, 6]: 0.342 µM·h
concentration at 12 h [2, 6]: 2.09 nM
Cmax ([2]; single oral dose 15 mg, healthy volunteers, n = 6, read-out: Cmax Mean): 0.134 µM
Tmax ([2]; single oral dose 15 mg, healthy volunteers, n = 6, read-out: Tmax Median): 0.75 h
AUC(0-inf) [2, 7]: 0.676 µM·h
concentration at 12 h [2, 7]: 4.41 nM
Cmax ([2]; single oral dose 25 mg, healthy volunteers, n = 6, read-out: Cmax Mean): 0.303 µM
Tmax ([2]; single oral dose 25 mg, healthy volunteers, n = 6, read-out: Tmax Median): 0.5 h
AUC(0-inf) [2, 8]: 1.18 µM·h
concentration at 12 h [2, 8]: 6.36 nM
Cmax ([2]; single oral dose 40 mg, healthy volunteers, n = 6, read-out: Cmax Mean): 0.505 µM
Tmax ([2]; single oral dose 40 mg, healthy volunteers, n = 6, read-out: Tmax Median): 0.5 h
AUC(0-inf) [2, 9]: 3.2 µM·h
concentration at 12 h [2, 9]: 20.4 nM
Cmax ([2]; single oral dose 80 mg, healthy volunteers, n = 12, read-out: Cmax Mean): 1.42 µM
Tmax ([2]; single oral dose 80 mg, healthy volunteers, n = 12, read-out: Tmax Median): 0.5 h
AUC(0-inf) [2, 10]: 4.77 µM·h
concentration at 12 h [2, 10]: 30.3 nM
Cmax ([2]; single oral dose 120 mg, healthy volunteers, n = 6, read-out: Cmax Mean): 1.94 µM
Tmax ([2]; single oral dose 120 mg, healthy volunteers, n = 6, read-out: Tmax Median): 0.5 h
AUC(0-inf) [2, 11]: 7.89 µM·h
concentration at 12 h [2, 11]: 49 nM
Cmax ([2]; single oral dose 225 mg, healthy volunteers, n = 6, read-out: Cmax Mean): 3.14 µM
Tmax ([2]; single oral dose 225 mg, healthy volunteers, n = 6, read-out: Tmax Median): 0.75 h
AUC(0-inf) [2, 12]: 23.6 µM·h
concentration at 12 h [2, 12]: 153 nM
Cmax ([2]; single oral dose 345 mg, healthy volunteers, n = 6, read-out: Cmax Mean): 11 µM
Tmax ([2]; single oral dose 345 mg, healthy volunteers, n = 6, read-out: Tmax Median): 0.75 h
AUC(0-inf) [2, 13]: 30.8 µM·h
concentration at 12 h [2, 13]: 167 nM
Cmax ([2]; single oral dose 530 mg, healthy volunteers, n = 6, read-out: Cmax Mean): 13.8 µM
Tmax ([2]; single oral dose 530 mg, healthy volunteers, n = 6, read-out: Tmax Median): 0.5 h
CLo (apparent oral clearance) Mean [2, 6]: 98.0 L/h
CLo (apparent oral clearance) Mean [2, 7]: 85.7 L/h
CLo (apparent oral clearance) Mean [2, 8]: 74.5 L/h
CLo (apparent oral clearance) Mean [2, 10]: 56.0 L/h
CLo (apparent oral clearance) Mean [2, 11]: 61.6 L/h
CLo (apparent oral clearance) Mean [2, 12]: 32.0 L/h
CLo (apparent oral clearance) Mean [2, 13]: 38.6 L/h
oral absorption ([2]; upon oral administration): rapidly and well absorbed
differences in pharmacokinetics due to gender ([3]; fasted subjects, single dose of 225 mg): No apparent differences
half-life [3, 14]: 5.93 ± 0.66 h
AUC(0-inf) [3, 14]: 11.4 ± 2.17 µM·h
Cmax [3, 14]: 6650 ± 1750 nM
Tmax [3, 14]: 0.51 h
half-life [3, 15]: 5.53 ± 0.88 h
AUC(0-inf) [3, 15]: 7.89 ± 1.51 µM·h
Cmax [3, 15]: 3140 ± 511 nM
Tmax [3, 15]: 0.75 h
half-life [3, 16]: 6.19 ± 1.21 h
AUC(0-inf) [3, 16]: 12.5 ± 2.79 µM·h
Cmax [3, 16]: 5700 ± 1420 nM
Tmax [3, 16]: 0.5 h
CLo (apparent oral clearance) Mean [4]: 57.3 L/h
decrease in AUC with food [5, 17]: about 23%
decrease in Cmax with food [5, 17]: about 40%
AUC (0-t) Geometric Mean Ratio [5, 18]: 0.767
AUC (0-∞) Geometric Mean Ratio [5, 18]: 0.767
Cmax Geometric Mean Ratio [5, 18]: 0.597
Tmax ([5]; human, plasma, Fasted, 225 mg single oral dose, male subjects, n = 6, read-out: Tmax (median)): 0.5 h
AUC(0-inf) [5, 19]: 12.5 ± 2.79 µM·h
AUC(0-t) [5, 19]: 12.4 ± 2.79 µM·h
Cmax [5, 19]: 5700 ± 1420 nM
AUC(0-inf) [5, 20]: 9.49 ± 1.71 µM·h
AUC(0-t) [5, 20]: 9.48 ± 1.71 µM·h
Cmax [5, 20]: 3410 ± 832 nM
